Assay results as given in paper PMC9780108, “An intrinsically disordered antimicrobial peptide dendrimer from stereorandomized virtual screening” (Cell Reports. Physical Science, 2022).

Experiments:
P. aeruginosa PAO1 [1] = test: PI cell permeabilization assay (flow cytometry); format: cell-based, Pseudomonas aeruginosa; conditions: PAO1 (OD600 = 1) incubated 20 min at 37°C, PI 5 µg/mL
Method: page 31: 12. Cell Membrane Permeability Assay Propidium iodide (PI) was used as the fluorescent dye to evaluate integrity of bacterial membranes. A single colony of Pseudomonas aeruginosa PAO1 was grown overnight with shaking (150 rpm) in LB-broth (5 mL) at 37 °C. 100 μL of the overnight culture was regrown in 10 mL LB-broth to the exponential phase OD600 1 (10^9 CFU/mL). Bacteria was washed with MH and then re-suspended to a working concentration of OD600 = 1. AMPDs and polymyxin B (stock solution 1 mg/mL) were added at different final concentrations ( 16, 32 and 64 μg/mL). Samples were incubated with shaking (150 rpm) at 37°C for 20 minutes before samples were centrifuged at 14 000 rpm for 3 min. Bacteria sample was washed twice with PBS and stained with PI 5 µg/mL in PBS with shaking (150 rpm) at 37°C for 20 minutes. Bacteria sample was washed 5 times with PBS and the fluorescence intensity of bacteria suspensions was observed and recorded on a ImageStream ® X Mark II Imaging Flow Cytometer with a 488 nm laser , bacteria cells wi th fluorescent intensity higher than 2 × 104 is defined as PI positive cells. Percentage of PI positive cells was calculated by IDEA S workstation . S30

P. aeruginosa PAO1 [2] = test: DiSC3(5) inner membrane depolarization assay; format: cell-based, Pseudomonas aeruginosa; conditions: PAO1 in HEPES buffer pH 7.4, 2 μM DiSC3(5), up to 64 μg/mL, read within 5 min
Method: page 29: 11. DiSC3(5) Membrane Depolarization Assay A single colony of Pseudomonas aeruginosa PAO1 was grown overnight with shaking (150 rpm) in LB-broth (5 mL) at 37 °C. 100 μL of the overnight culture was regrown in 10 mL LB- broth with shaking (200 rpm) to the exponential phase OD 600 = 1 (10^9 CFU/mL). Bacteria were washed once with HEPES buffer (5 mM HEPES, 5 mM glucose, pH 7.4) and diluted to OD 600 = 0.4. Stock solution of 10 mM of DiSC3(5) was prepared in DMSO. Stock solutions of 1 mg/mL of the compounds were prepared in sterilized milli-Q water and diluted to the beginning concentration of 128 μg/mL in 200 μL HEPES buffer containing […] the fluorescent probe DiSC3(5) 4 μM. The diluted samples were added to the first well of 96-well plates (black wells, flat bottom, BRAND® GmbH Wertheim, Germany) and diluted serially by 1/2. 100 μL of the bacterial suspension in HEPES buffer (without DiSC3(5)) were added to each well. In this case, the final OD of bacteria was 0.2, the final concentration of peptide in the first column is 64 μg/mL and DiSC3(5) 2 μM. The control wells are buffer containing DiSC3(5) and bacterial suspension containing DiSC3(5) in HEPES buffer. The plate was measured with a Tecan instrument Infinite M1000 within 5 min. The plate was enabled to shake for 5 sec before measurement. […]

P. aeruginosa ZEM-1A = conditions: MDR clinical isolate; MH medium pH 7.4, 16–20 h at 37°C; two independent experiments in duplicate
S. aureus Newman = conditions: MH medium pH 7.4, 16–20 h at 37°C; two independent experiments in duplicate
K. pneumoniae NCTC 418 = conditions: broth microdilution, two independent experiments in duplicate
P. aeruginosa PAO1 [3] = conditions: broth microdilution, two independent experiments in duplicate
P. aeruginosa ZEM9A = conditions: clinical isolate; MH medium pH 7.4, 16–20 h at 37°C; two independent experiments in duplicate
P. aeruginosa PA14 = conditions: MH medium pH 7.4, 16–20 h at 37°C; two independent experiments in duplicate
S. maltophilia = conditions: MH medium pH 7.4, 16–20 h at 37°C; two independent experiments in duplicate
A. baumannii ATCC 19606 = conditions: broth microdilution, two independent experiments in duplicate
B. cenocepacia = conditions: MH medium pH 7.4, 16–20 h at 37°C; two independent experiments in duplicate
[4] = system: S aureus COL (methicillin-resistant Staphylococcus aureus); conditions: broth microdilution, two independent experiments in duplicate
K. pneumoniae OXA-48 = conditions: carbapenem-resistant strain; MH medium pH 7.4, 16–20 h at 37°C; two independent experiments in duplicate
E. coli W3110 = conditions: broth microdilution, two independent experiments in duplicate
HEK293 cell line = format: cell-based; conditions: HEK293 cell line, 48 h at 37°C, DMEM 10% FBS, AlamarBlue; mean ± SD, three independent experiments in triplicates
How it was run: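 HEK293 cells seeded at 2 × 10³/well, incubated 48 h at 37 °C with serially diluted compounds (stock 2 mg/mL) in DMEM with 10% FBS. AlamarBlue added at 10% final for 3–5 h; fluorescence ex 560/em 590 nm, normalized to untreated cells.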

E. cloacae = conditions: MH medium pH 7.4, 16–20 h at 37°C; two independent experiments in duplicate
human red blood cells = test: Hemolysis assay (MHC); conditions: Table 1; human red blood cells in PBS (pH 7.4), 4 h, visual inspection; two independent experiments in duplicate
[5] = Table 1, Müller-Hinton medium pH 7.4, 16–20 h at 37°C
[6] = Müller-Hinton medium pH 5.0, 16–20 h at 37°C
[7] = Müller-Hinton medium pH 8.0, 16–20 h at 37°C

PMB nonapeptide [PMBN]
Cell permeabilization (PI), percentage of PI-positive cells (P. aeruginosa PAO1 [1]; 16 μg/mL): 40% | Cell permeabilization (PI), percentage of PI-positive cells (P. aeruginosa PAO1 [1]; 32 μg/mL): 38% | Cell permeabilization (PI), percentage of PI-positive cells (P. aeruginosa PAO1 [1]; 64 μg/mL): 37% | Inner membrane depolarization (DiSC3(5) fluorescence), words (P. aeruginosa PAO1 [2]): no effect on inner membranes

polymyxin B [PMB, reference compound]
MIC, P. aeruginosa ZEM-1A (P. aeruginosa ZEM-1A): 0.5 µg/mL | MIC, S. aureus Newman (S. aureus Newman): >64 µg/mL | MIC at pH 7.4, K. pneumoniae NCTC 418 (K. pneumoniae NCTC 418; [5]): 0.25 μg/mL | MIC at pH 5.0, K. pneumoniae NCTC 418 (K. pneumoniae NCTC 418; [6]): 8 μg/mL | MIC at pH 8.0, K. pneumoniae NCTC 418 (K. pneumoniae NCTC 418; [7]): 0.25 μg/mL | MIC at pH 7.4, P. aeruginosa PAO1 (P. aeruginosa PAO1 [3]; [5]): 0.5 μg/mL | MIC at pH 5.0, P. aeruginosa PAO1 (P. aeruginosa PAO1 [3]; [6]): 0.03 μg/mL | MIC at pH 8.0, P. aeruginosa PAO1 (P. aeruginosa PAO1 [3]; [7]): 0.5 μg/mL | MIC, P. aeruginosa ZEM9A (P. aeruginosa ZEM9A): 64 µg/mL | MIC, P. aeruginosa PA14 (P. aeruginosa PA14): 0.5 µg/mL | MIC, S. maltophilia (S. maltophilia): 4 µg/mL | Cell permeabilization (PI), percentage of PI-positive cells (P. aeruginosa PAO1 [1]; 16 μg/mL): 96% | Cell permeabilization (PI), percentage of PI-positive cells (P. aeruginosa PAO1 [1]; 32 μg/mL): 94% | Cell permeabilization (PI), percentage of PI-positive cells (P. aeruginosa PAO1 [1]; 64 μg/mL): 96% | MIC at pH 7.4, A. baumannii ATCC 19606 (A. baumannii ATCC 19606; [5]): 0.25 μg/mL | MIC at pH 5.0, A. baumannii ATCC 19606 (A. baumannii ATCC 19606; [6]): 1 μg/mL | MIC at pH 8.0, A. baumannii ATCC 19606 (A. baumannii ATCC 19606; [7]): 0.25 μg/mL | MIC, B. cenocepacia (B. cenocepacia): >64 µg/mL | MIC at pH 5.0, S aureus COL [4, 6]: > 64 μg/mL | MIC at pH 7.4, S aureus COL ([4]; Müller-Hinton medium pH 7.4, 16–20 h at 37°C): > 64 μg/mL | MIC at pH 8.0, S aureus COL [4, 7]: 4 μg/mL | MIC, K. pneumoniae OXA-48 (K. pneumoniae OXA-48): 1 µg/mL | MIC at pH 7.4, E. coli W3110 (E. coli W3110; [5]): 0.25 μg/mL | MIC at pH 5.0, E. coli W3110 (E. coli W3110; [6]): 0.02 μg/mL | MIC at pH 8.0, E. coli W3110 (E. coli W3110; [7]): 0.13 μg/mL | IC50 HEK293 (HEK293 cell line): 346 ± 20 µg/mL | MIC, E. cloacae (E. cloacae): 0.5 µg/mL | MHC (minimum hemolytic concentration) (human red blood cells): >2,000 μg/mL | Inner membrane depolarization (DiSC3(5) fluorescence), words (P. aeruginosa PAO1 [2]): did not depolarize the inner membrane
